According to US11976311B2, “Method of adjusting the pH of a pretreatment solution using carbon dioxide useful for integrating saccharification and fermentation of a biomass” (National Technology & Engineering Solutions of Sandia, LLC, priority 2014, dated 2024):
Blank lines part the entries; values can stand above or below the molecule they belong to.

Experiments:
[1] = tested on: Saccharomyces cerevisiae strain BY4741; test: Toxicity screen of ionic liquids on Saccharomyces cerevisiae strain BY4741; type: cell-based; settings: 200 mM IL, SC medium containing 0.2% glucose, pH adjusted to 7 with hydrochloric acid if necessary
Protocol: Both choline, the cation precursor and lysine, the anion precursor are essential nutrients for microbial growth, which are known to be non-toxic and biodegradable. In this study, we carried out toxicity screen of 15 typical ILs including [Ch][Lys], [Ch][OAc] and imidazolium based ILs, [[…]][OAc] on Saccharomyces cerevisiae strain BY4741 at different IL concentrations of 25 and 200 mM (FIG. 2A-2B) in SC medium containing 0.2% glucose with the pH of the IL solution adjusted to 7 using hydrochloric acid if necessary. It aims to test whether the IL, [Ch][Lys] is compatible to commercial enzymes and biofuel producing microbes. As shown in FIG. 2A-2D, the microbial growth was completely jeopardized in a concentration of 200 mM ( 4.3 wt %) for most of the ILs.

[2] = tested on: commercial enzyme mixtures (CTec2+HTec2); test: Effect of acid-induced pH adjustment of 5% [Ch][Lys] solution on enzymatic hydrolysis of MCC; type: biochemical; settings: for relative activities of enzymes on MCC: 5% [Ch][Lys] solution, pH adjusted with the named acid
Protocol: To enable a one-pot process, the pH mis-match must be adjusted to lower the pH of pretreatment slurry to a range suitable to enzymes and microbes. We tested a series of mineral and organic acids such as hydrochloric acid, phosphoric acid, sulfuric acid, acetic acid, citric acid, lactic acid, formic acid for the pH adjustment of 5% [Ch][Lys] solution.
(§1) In another set of pretreatment, switchgrass (100 mg, dry weight) was mixed with 5, 10, and 20% [Ch][Lys]-water solutions at a 10% biomass loading in a 15 ml capped glass pressure tube and pretreated at 140° C. for 1 h. After pretreatment, CTec2+HTec2 (9:1 v/v) mixture was directly added to the pretreatment slurry at 10 mg EP per g starting biomass for saccharification at the same conditions as stated above. In addition, microcrystalline cellulose (MCC) was hydrolyzed by 30 mg/g starting biomass for CTec2+HTec2, spiked with 0-30% IL.

[3] = pH of [Ch][Lys]/water systems and CO2-based pH adjustment; type: physicochemical
Text: With the increasing of CO2 pressure from 0 to 0.1 MPa, pH values of all [Ch][Lys]-water solutions decrease sharply from pH of […] to pH of 7-9. Further increasing CO2 pressure led to further pH drop. For 20 wt % [Ch][Lys]-water solution, a pH value of 7.2 was obtained at a CO2 pressure of around 2 MPa. However, only 0.7 MPa CO2 pressure is needed to drop the pH of 10 wt % [Ch][Lys]-water solution to 7.1. While, only 0.1 MPa CO2 pressure is needed to low the pH of the 5 wt % [Ch][Lys]-water solution to around 6.9, similar to or lower than the typical pressure deployed for carbonating a can of Soda. The process is reversible by increasing temperature or bubbling N2, driving out the CO2 and restoring the pH to its original value. In addition, a small fraction of alcohol (e.g. ethylene glycol) could be introduced for further enhancing CO2 absorption efficiency if necessary.^20
All the CO2 absorption experiments were carried out at room temperature in a 25 mL stainless steel Parr reactor (Parr instrument Co., USA) equipped with a magnetic stirrer plate and CO2 cylinder (>99.9% CO2 purity). In a typical procedure, 10 mL a certain concentration of [Ch][Lys] aqueous system was added into the Parr. After being sealed, the Parr was stirred at room temperature, and the absorption pressure was held constant by a backpressure valve. After the absorption was completed, the Parr was cooled to ambient temperature, and the remaining CO2 was removed slowly. Then, the corresponding pH value of the mixture was analyzed by Orion™ 3-Star Benchtop pH Meter. To elucidate the interaction between CO2 with side amine and terminal amine groups of [Ch][Lys] in H2O, we conducted ^13C nuclear magnetic resonance (NMR) analysis of [Ch][Lys] before and after CO2 absorption. Furthermore, two-dimensional (2D) […] heteronuclear single quantum coherence (HSQC) and heteronuclear multiple bond correlation (HMBC) nuclear magnetic resonance (NMR) analysis were also carried out on [Ch][Lys] before and after CO2 absorption.

[4] = tested on: CTec2+HTec2 (9:1, v/v) commercial enzyme mixtures; test: Compatibility of ILs with commercial enzyme mixtures (enzymatic hydrolysis of microcrystalline cellulose); type: biochemical; settings: pH adjusted to 4.5 with hydrochloric acid
Protocol: as §1

enzyme activity ([2]; 5% [Ch][Lys] solution without pH adjustment): very low
pH ([3]; 5 wt % [Ch][Lys]-water, 0.1 MPa CO2 pressure): around 6.9
pH ([3]; 10 wt % [Ch][Lys]-water, 0.7 MPa CO2 pressure): 7.1
pH ([3]; 20 wt % [Ch][Lys]-water, CO2 pressure around 2 MPa): 7.2
pH ([3]; [Ch][Lys] or aqueous [Ch][Lys] solution during and after pretreatment): 12-14
pH ([3]; all [Ch][Lys]-water solutions (5, 10, 20 wt %), CO2 pressure 0.1 MPa, room temperature): 7-9
relative activity of enzymes (sugar yield from hydrolysis of microcrystalline cellulose) vs no-IL control ([4]; 5% IL): ~70%
relative activity of enzymes (sugar yield from hydrolysis of microcrystalline cellulose) vs no-IL control ([4]; 10% IL): ~50%
Compound: C[N+](C)(C)CCO.NCCCC[C@H](N)C(=O)[O-] [[Ch][Lys], cholinium lysinate]
microbial growth [1]: no retard of microbial growth

Compound: Cl [hydrochloric acid]
relative activities of enzymes on MCC [2]: outperforms the other acids

relative activities of enzymes on MCC [2]: outperforms the other acids
Compound: O=C(O)CC(O)(CC(=O)O)C(=O)O [citric acid]

Compound: O=S(=O)(O)O [sulfuric acid]
relative activities of enzymes on MCC [2]: outperforms the other acids
